Patent publication US4477664A, “Novel 1-(4-piperidiniobenzyl)-2,3-dioxopiperazine derivatives or acid addition salts thereof” (Toyama Chemical Co., Ltd., priority 1979, dated 1984)
≈ marks a conversion by molar mass, not a printed value.

Columns and labels:
HeLa S3 cells = test: MIC value against HeLa S3 cells (microplate method); type: cell-based; details: Homo sapiens, 96 h, 2×10^4 cells/ml, 4 days, Giemsa staining
Description: (§1) a. MIC value against HeLa S3 cells and Ehrlich cells (microplate method) Number of cells: 2×10^4 cells/ml Culture medium: Eagle's MEM+20% calf embryonic serum Culture time: 4 days Judgement: Giemsa staining

[1] = test system: Sarcoma 180 ascites cells; test: Effect on Sarcoma 180 carcinoma: intraperitoneal inoculation, mean survival days; type: in vivo, ICR-strain mice; details: 200 mg/kg, once a day for 7 days
Description: Sarcoma 180 ascites cells (1×10^6 cells/head) were inocualted intraperitoneally into ICR-strain mice (female, 6 weeks old, each group consisting of 4 or 5 mice), and after 24 hours, the intraperitoneal administration of a test drug was started, and effected once a day for 7 days. The effect thereof was judged from the mean survival days. The test drug was used in the form of a solution or suspension in a saline solution or a 0.3% carboxymethyl cellulose-containing saline solution. [formula]

[2] = test system: Ehrlich ascites carcinoma cells; test: Effect on Ehrlich carcinoma (i): intraperitoneal inoculation, mean survival days; type: in vivo, ICR-strain mice; details: Mus musculus, ip, 168 h, once a day for 7 days, read-out: T/C (mean survival days)
Description: (i) Ehrlich ascites carcinoma cells (1×10^6 cells/head) were inoculated intraperitoneally into ICR-strain mice (female, 6 to 7 weeks old, each group consisting of 5 or 4 mice), and after 24 hours, the […] The effect thereof was judged from the mean survival days.
The test drugs were used in the form of a solution or suspension in a saline solution or a 0.3% carboxymethyl cellulose-containing saline solution. [formula]

Ehrlich cells = test: MIC value against Ehrlich cells (microplate method); type: cell-based; details: 96 h, 2×10^4 cells/ml, 4 days, Giemsa staining
Description: as §1

Acute toxicity = details: mouse, in vivo, ip
Description: The test drugs were used in the form of a solution or suspension in a saline solution or a 0.3% carboxymethyl cellulose-containing saline solution.

[3] = intraperitoneal, once, male mice, observed for 7 days

| Structure (SMILES) | MIC (HeLa S3 cells) [µg/mL] | MIC (Ehrlich cells) [µg/mL] | LD50 at 168 h (Acute toxicity; [3]) [mg/kg] | other results |
| --- | --- | --- | --- | --- |
| CCCCCCN1CCN(Cc2ccc(Nc3ccccn3)cc2)C(=O)C1=O [Compound 1] | 0.2 (≈ 0.526 µM) | 0.2 (≈ 0.526 µM) |  | T/C (mean survival days) [1]: > 151.6%; Survival Ratio in Days Shown in Parenthesis ([1]; 35 days): 2/4; response vs control in vivo at 200 mg/kg ([2]; 200 mg/kg): > 221%; LD50 at 168 h (Acute toxicity): > 500 mg/kg |
| O=C1C(=O)N(Cc2ccc(Nc3ccccn3)cc2)CCN1Cc1ccccc1 [Compound 2] | 0.39 to 0.78 (≈ 1.01 to 2.02 µM) | 0.39 to 0.78 (≈ 1.01 to 2.02 µM) | > 200 | response vs control in vivo at 100 mg/kg [2]: > 192% |
| O=C1C(=O)N(Cc2ccc(Nc3ccc([N+](=O)[O-])cn3)cc2)CCN1Cc1ccccc1 [Compound 3] | 3.13 to 6.25 (≈ 7.25 to 14.5 µM) | 6.25 (≈ 14.5 µM) |  |  |
| CCCCCCN1CCN(Cc2ccc(Nc3ccncc3)cc2)C(=O)C1=O [Compound 5] | 3.13 (≈ 8.23 µM) | 3.13 (≈ 8.23 µM) |  |  |
| O=C1C(=O)N(c2cnccn2)CCN1Cc1ccc(Nc2ncccn2)cc1 [Compound 8] | 0.78 (≈ 2.08 µM) | 0.39 (≈ 1.04 µM) |  |  |
| O=C1C(=O)N(Cc2cnccn2)CCN1Cc1ccc(Nc2ncccn2)cc1 [Compound 9] | 1.56 to 3.13 (≈ 4.01 to 8.04 µM) | 6.25 (≈ 16 µM) |  |  |
| Nc1cccc(CN2CCN(Cc3ccc(Nc4ncccn4)cc3)C(=O)C2=O)n1 [Compound 10] | 1.56 to 3.13 (≈ 3.87 to 7.76 µM) | 12.5 (≈ 31 µM) |  |  |
| O=C1C(=O)N(CC2CCCCC2)CCN1Cc1ccc(Nc2ncccn2)cc1 [Compound 11] | 1.56 (≈ 3.96 µM) | 1.56 (≈ 3.96 µM) |  |  |
| O=C1C(=O)N(c2ccccc2)CCN1Cc1ccc(Nc2ncccn2)cc1 [Compound 12] | 0.78 (≈ 2.09 µM) | 0.78 (≈ 2.09 µM) | > 500 |  |
| O=C1C(=O)N(Cc2ccc(Nc3ncccn3)cc2)CCN1CCc1ccccc1 [Compound 14] | 0.39 (≈ 0.971 µM) | 0.39 (≈ 0.971 µM) | > 500 | response vs control in vivo at 100 mg/kg [2]: > 179% |
| O=C1C(=O)N(Cc2ccc(Nc3ncccn3)cc2)CCN1CCCc1ccccc1 [Compound 15] | 1.56 (≈ 3.75 µM) | 1.56 (≈ 3.75 µM) | > 500 |  |
| O=C1C(=O)N(Cc2ccc(Nc3ncccn3)cc2)CCN1Cc1ccc(Cl)cc1 [Compound 16] | 1.56 (≈ 3.7 µM) | 1.56 (≈ 3.7 µM) |  |  |
| COC(=O)c1ccc(CN2CCN(Cc3ccc(Nc4ncccn4)cc3)C(=O)C2=O)cc1 [Compound 17] | 6.25 (≈ 14 µM) | 6.25 (≈ 14 µM) |  |  |
| CC(c1ccccc1)N1CCN(Cc2ccc(Nc3ncccn3)cc2)C(=O)C1=O (centres unmarked) [Compound 18] | 3.13 (≈ 7.8 µM) | 6.25 (≈ 15.6 µM) |  |  |
| CCCCCCN1CCN(Cc2ccc(Nc3ccncn3)cc2)C(=O)C1=O [Compound 19] | 1.56 (≈ 4.09 µM) | 1.56 (≈ 4.09 µM) | > 500 |  |
| O=C1C(=O)N(Cc2ccc(Nc3ccncn3)cc2)CCN1Cc1ccccc1 [Compound 20] | 0.78 (≈ 2.01 µM) | 1.56 (≈ 4.03 µM) | > 500 |  |
| CCCCCCN1CCN(Cc2ccc(Nc3cnccn3)cc2)C(=O)C1=O [Compound 21] | 1.56 (≈ 4.09 µM) | 1.56 (≈ 4.09 µM) |  |  |
| CC(c1ccc(Nc2ncccn2)cc1)N1CCN(Cc2ccccc2)C(=O)C1=O (centres unmarked) [Compound 22] | 3.13 to 6.25 (≈ 7.8 to 15.6 µM) | 6.25 (≈ 15.6 µM) |  |  |
| O=C1C(=O)N(Cc2ccc(Nc3ncccn3)cc2)CCN1Cc1ccc(Nc2ncccn2)cc1 [Compound 23] | 6.25 (≈ 13 µM) | 6.25 (≈ 13 µM) |  | response vs control in vivo at 100 mg/kg [2]: 159% |
| O=C1C(=O)N(Cc2ccc(Nc3ccccn3)cc2)CCN1Cc1ccc(Nc2ccccn2)cc1 [Compound 24] | 3.13 (≈ 6.54 µM) | 3.13 (≈ 6.54 µM) |  |  |
